Laboratory results published in paper PMC11830721 (Frontiers in Pharmacology, 2025).

What was measured:
FLT3-ITD [1] = molecular target: T1, FLT3-ITD (Homo sapiens, UniProt P36888, ITD); test: ADP-Glo kinase-inhibition assay; type: biochemical; details: ADP-Glo; ATP 100 μM; FLT3-ITD 10 ng/μL
T1 sequence (P36888 27-993): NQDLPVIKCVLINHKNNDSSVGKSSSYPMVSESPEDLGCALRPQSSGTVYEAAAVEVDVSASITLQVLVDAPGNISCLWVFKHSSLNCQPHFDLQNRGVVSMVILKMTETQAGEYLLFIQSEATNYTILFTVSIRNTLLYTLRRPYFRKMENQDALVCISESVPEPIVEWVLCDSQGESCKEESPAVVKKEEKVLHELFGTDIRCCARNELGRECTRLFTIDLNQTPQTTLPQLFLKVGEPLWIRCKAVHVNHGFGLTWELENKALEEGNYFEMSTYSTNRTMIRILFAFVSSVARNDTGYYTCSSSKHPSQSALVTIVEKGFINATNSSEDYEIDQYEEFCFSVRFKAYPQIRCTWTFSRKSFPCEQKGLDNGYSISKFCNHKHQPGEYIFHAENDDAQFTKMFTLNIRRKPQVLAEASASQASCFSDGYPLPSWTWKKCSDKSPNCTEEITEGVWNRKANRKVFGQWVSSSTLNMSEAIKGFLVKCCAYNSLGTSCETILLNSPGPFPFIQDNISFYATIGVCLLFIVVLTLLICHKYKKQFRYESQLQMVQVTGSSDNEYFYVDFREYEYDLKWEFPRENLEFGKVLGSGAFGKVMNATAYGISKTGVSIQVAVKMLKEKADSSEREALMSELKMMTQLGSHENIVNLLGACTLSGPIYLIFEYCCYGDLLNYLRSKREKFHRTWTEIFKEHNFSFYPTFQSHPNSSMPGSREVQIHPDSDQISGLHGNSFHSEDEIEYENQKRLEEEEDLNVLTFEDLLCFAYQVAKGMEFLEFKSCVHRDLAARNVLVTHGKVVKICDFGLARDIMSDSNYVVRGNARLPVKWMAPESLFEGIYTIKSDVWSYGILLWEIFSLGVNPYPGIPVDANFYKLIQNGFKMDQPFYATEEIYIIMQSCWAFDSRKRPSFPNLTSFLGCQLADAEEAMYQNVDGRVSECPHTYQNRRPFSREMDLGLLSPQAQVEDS
Method: Subsequently, the kinase detection reagent was added and incubated for an additional 15 min. Finally, the mixture was incubated for 1 h, and relative luminescence units (RLU) were measured.
Moreover, we extended the kinase selectivity profiling of FLIN-4 to evaluate its inhibitory activity against 60 non-target kinases.

FLT3-ITD [2] = molecular target: T1, FLT3-ITD; test: Microscale thermophoresis (MST) binding affinity; details: 50 mM Tris, 230 mM NaCl, pH 7.0, labeled protein 50 nM
Method: The protein was labeled with a fluorescence tag utilizing a Lys Labeling Kit (NanoTemper), with a final concentration of 50 nM being achieved. Adhering to the manufacturer’s guidelines, the compounds were titrated from an initial concentration of 12.5 μM with a 1:1 dilution ratio. Next, each sample was centrifuged at 15,000 rpm for 5 min, followed by loading into standard glass capillaries for MST analysis.

MV4-11 cells = test: MTT anti-proliferation assay, MV4-11; type: cell-based; details: Homo sapiens, 72-h treatment
Method: In addition, the normal hematopoietic cell line was COLO 829BL from ATCC. The cells were maintained in RPMI-1640 medium supplemented with 10% FBS, and 1% penicillin and streptomycin. The cells were cultured in an incubator at 37°C with 5% CO2. […] The high-performance liquid chromatography (HPLC) spectra data for each compound are provided in the (Supplementary Figures S1–S6).
The effects of the test compounds on MV4-11, NB4, and COLO 829BL cell lines were quantitatively evaluated according to the methods previously reported ([Zhou et al., 2022]).

Structure (SMILES)	IC50 (FLT3-ITD [1])	Kd (FLT3-ITD [2])	IC50 (MV4-11 cells)
CCc1nc(C(N)=O)c(Nc2ccc(N3CCC(NC4CCCCC4)CC3)c(OC)c2)nc1NC1CCOC(C(O)CO)C1 (stereo not drawn) [FLIN-3]	2.85 ± 0.22 nM	2.19 ± 0.33 nM	3.03 ± 0.27 nM
CCc1nc(C(N)=O)c(Nc2ccc(N3CCC(NC(CC)CC)CC3)c(OC)c2)nc1NC1CCOC(C(O)CO)C1 (stereo not drawn) [FLIN-6]	6.39 ± 0.47 nM	5.26 ± 0.42 nM	8.28 ± 0.54 nM
CCCNC1CCN(c2ccc(Nc3nc(NC4CCOC(C(O)CO)C4)c(CC)nc3C(N)=O)cc2OC)CC1 (stereo not drawn) [FLIN-5]	14.5 ± 0.98 nM	12.5 ± 1.05 nM	17.7 ± 1.03 nM
CCc1nc(C(N)=O)c(Nc2ccc(N3CCC(NC4CC4)CC3)c(OC)c2)nc1NC1CCOC(C(O)CO)C1 (stereo not drawn) [FLIN-1]	10.2 ± 0.81 nM	8.74 ± 0.52 nM	12.2 ± 0.94 nM
CCc1nc(C(N)=O)c(Nc2ccc(N3CCC(NC4CCCC4)CC3)c(OC)c2)nc1NC1CCOC(C(O)CO)C1 (stereo not drawn) [FLIN-2]	4.98 ± 0.35 nM	3.62 ± 0.41 nM	5.54 ± 0.41 nM
